Consider eight molecules from patent US10040804B2, “Compounds targeting proteins, compositions, methods, and uses thereof” (BioTheryX, Inc., priority 2016, dated 2018).

Molecules are shown by their SMILES.

Assay [1] concerns IL-1β. The assay is described as follows: IL-1β expression in LPS stimulated PBMCs (Meso Scale). In kind it is cell-based, human. The note with it: Homo sapiens, PBMC; for inhibition at 0.1 µM: compound concentration 0.1 μM. As to the method:
FIGS. 5 and 9A are graphs showing IL-1-beta expression in LPS stimulated peripheral blood mononuclear cells (PBMCs), PBMCs were plated in 96-well plates and pretreated with compound (Compound 1-9 individually) for 1 h, and then induced with 100 ng/mL LPS for 18-24 h. Cytokines in the media were measured according to MesoScale protocol. Negative control wells were treated with DMSO. Compound activity is measured as a percentage of LPS-induced activity. “Rev” is lenalidomide.
(§1) Frozen primary blood mononuclear cells (PBMCs) and frozen CD14+ mobilized peripheral blood monocytes were purchased from AllCells. Cells were quick thawed, and washed 1-time with RPMI-1640/10% FBS/1% Penicillin/1% Streptomycin and plated in 96-well plates at 200,000 cells per well. Cells were pretreated with DMSO only, Compound 5013 (lenolidamide) or the indicated compound for 1 h and then induced with 100 ng/mL lipopolysaccharide (LPS) for 18-24 h. The supernatant was analyzed for IL-1 beta, IL-6, and TNF-α using Meso Scale assay according to manufacturer's protocol. The negative control wells were treated with DMSO.
(§2) PBMCs: AllCells PB003F, Normal Peripheral Blood MNC.
(§3) Media: RPMI 1640/10% FBS/1% Pen-Strep.

The test system of assay [2] is Molm-13 cells. The assay is described as follows: Molm-13 cell viability (CellTiter-Glo). In kind it is cell-based. The note with it: Homo sapiens, MOLM-13, read-out: % Inhibition (MOLM-13 Cell Viability); for cytotoxicity at 0.1 µM: compound concentration 0.1 μM. As to the method:
(§4) FIG. 10A is a graph showing antiproliferative activity in H1048 (SCLC) cells. FIG. 10B is a graph showing antiproliferative activity in Molm-13 (AML) cells. In FIGS. 10A and 10B, the cells were incubated for 72 hrs with Compound 9 at the indicated concentrations or DMSO. Compound activity was measured based on the signal from remaining viable cells.
(§5) Molm-13 cells were cultivated in RPMI-1640 (10% FBS/1% pen-strep) and were plated in white walled 96-well plates at 20,000 cells/well. H1048 cells were cultured in DMEM:F12 media supplemented with 5% fetal bovine serum, insulin, transferrin, sodium selenite, hydrocortisone, β-estradiol, penicillin and streptomycin, and were plated in white walled 96-well plates at 20,000 cells/well. MDA-MB-231 cells were cultured in DMEM media supplemented with 10% fetal bovine serum, penicillin and streptomycin, and were plated in white walled 96-well plates at 10,000 cells/well. Cells were treated with compound or DMSO (0.1%, control) and the cultures were incubated for 3 days at 37° C. and 5% CO2. Following the incubation period, 100 μL of CellTiterGlow (CTG) reagent (CellTiter-Glo® Luminescent Cell Viability Assay, Promega (Madison, Wis.)) was added to each well. Following a 10 min incubation with shaking, luminescence was measured using a Victor Wallac Luminometer.
A general note: In ATP-based viability assays light output follows the ATP content of the culture.

Assay [3] concerns MDA-MB-231 cells. The assay is described as follows: MDA-MB-231 cell viability (CellTiter-Glo). The note with it: Homo sapiens, 72 h, 3 days, DMSO = 100.00; for viability at 1 µM: 1 μM compound concentration; for viability at 10 µM: 10 μM compound concentration. In kind it is cell-based. As to the method: as §5
The test system of assay [4] is H1048 cells. The assay is described as follows: H1048 cell viability (CellTiter-Glo). The note with it: Homo sapiens, NCI-H1048, 72 h, H1048, 3 days, DMSO = 100.00; for viability at 1 µM: 1 μM compound concentration; for viability at 10 µM: 10 μM compound concentration. The assay is classed as cell-based. The method, then:
as §4, §5

Assay [5] concerns IL-6. As to the kind of experiment: IL-6 expression in LPS stimulated PBMCs (Meso Scale). The assay is classed as cell-based, human. The note with it: Homo sapiens, PBMC, LPS-stimulated PBMCs; for inhibition at 0.1 µM: compound concentration 0.1 μM. The method, then:
FIGS. 6 and 9B are graphs showing IL-6 expression in LPS stimulated peripheral blood mononuclear cells (PBMCs). PBMCs were plated in 96-well plates and pretreated with compound (Compound 1-9 individually) for 1 h, and then induced with 100 ng/mL LPS for 18-24 h. Cytokines were measured according to MesoScale protocol. Negative control wells were treated with DMSO. Compound activity was measured as a percentage of LPS-induced activity. “Rev” is lenalidomide.
as §1, §2, §3

Assay [6] deals with T1, GSPT1 (Homo sapiens, UniProt P15170).
T1 construct: Whole cell extracts were prepared using RIPA buffer according to manufacturer's protocol (Pierce); endogenous in cells
T1 sequence (P15170 whole entry): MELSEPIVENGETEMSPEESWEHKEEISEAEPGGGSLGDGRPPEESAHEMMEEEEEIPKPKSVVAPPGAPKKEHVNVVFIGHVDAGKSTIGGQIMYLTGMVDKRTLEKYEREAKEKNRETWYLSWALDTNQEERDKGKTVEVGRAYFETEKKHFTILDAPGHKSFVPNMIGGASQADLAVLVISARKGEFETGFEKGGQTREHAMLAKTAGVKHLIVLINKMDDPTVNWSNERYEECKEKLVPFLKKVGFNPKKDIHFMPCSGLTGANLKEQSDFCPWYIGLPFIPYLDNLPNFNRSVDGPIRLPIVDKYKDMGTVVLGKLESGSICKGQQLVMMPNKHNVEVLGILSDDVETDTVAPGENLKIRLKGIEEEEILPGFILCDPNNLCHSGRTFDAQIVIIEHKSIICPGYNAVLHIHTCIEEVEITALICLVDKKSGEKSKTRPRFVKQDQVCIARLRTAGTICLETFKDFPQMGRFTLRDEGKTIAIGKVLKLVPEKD
T1 sequence (Q96SW2 whole entry, further chain): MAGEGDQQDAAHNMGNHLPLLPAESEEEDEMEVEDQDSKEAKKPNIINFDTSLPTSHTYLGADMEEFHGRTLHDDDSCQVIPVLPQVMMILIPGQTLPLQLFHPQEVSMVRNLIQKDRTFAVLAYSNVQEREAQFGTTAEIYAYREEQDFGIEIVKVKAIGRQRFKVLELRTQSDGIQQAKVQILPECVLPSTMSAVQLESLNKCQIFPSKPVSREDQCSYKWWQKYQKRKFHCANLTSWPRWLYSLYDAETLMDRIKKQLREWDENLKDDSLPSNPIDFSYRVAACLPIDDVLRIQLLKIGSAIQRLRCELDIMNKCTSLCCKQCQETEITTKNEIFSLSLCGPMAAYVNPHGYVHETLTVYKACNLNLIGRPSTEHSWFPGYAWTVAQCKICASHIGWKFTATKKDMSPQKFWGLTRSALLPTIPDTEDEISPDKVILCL
T1 sequence (Q16531 whole entry partner): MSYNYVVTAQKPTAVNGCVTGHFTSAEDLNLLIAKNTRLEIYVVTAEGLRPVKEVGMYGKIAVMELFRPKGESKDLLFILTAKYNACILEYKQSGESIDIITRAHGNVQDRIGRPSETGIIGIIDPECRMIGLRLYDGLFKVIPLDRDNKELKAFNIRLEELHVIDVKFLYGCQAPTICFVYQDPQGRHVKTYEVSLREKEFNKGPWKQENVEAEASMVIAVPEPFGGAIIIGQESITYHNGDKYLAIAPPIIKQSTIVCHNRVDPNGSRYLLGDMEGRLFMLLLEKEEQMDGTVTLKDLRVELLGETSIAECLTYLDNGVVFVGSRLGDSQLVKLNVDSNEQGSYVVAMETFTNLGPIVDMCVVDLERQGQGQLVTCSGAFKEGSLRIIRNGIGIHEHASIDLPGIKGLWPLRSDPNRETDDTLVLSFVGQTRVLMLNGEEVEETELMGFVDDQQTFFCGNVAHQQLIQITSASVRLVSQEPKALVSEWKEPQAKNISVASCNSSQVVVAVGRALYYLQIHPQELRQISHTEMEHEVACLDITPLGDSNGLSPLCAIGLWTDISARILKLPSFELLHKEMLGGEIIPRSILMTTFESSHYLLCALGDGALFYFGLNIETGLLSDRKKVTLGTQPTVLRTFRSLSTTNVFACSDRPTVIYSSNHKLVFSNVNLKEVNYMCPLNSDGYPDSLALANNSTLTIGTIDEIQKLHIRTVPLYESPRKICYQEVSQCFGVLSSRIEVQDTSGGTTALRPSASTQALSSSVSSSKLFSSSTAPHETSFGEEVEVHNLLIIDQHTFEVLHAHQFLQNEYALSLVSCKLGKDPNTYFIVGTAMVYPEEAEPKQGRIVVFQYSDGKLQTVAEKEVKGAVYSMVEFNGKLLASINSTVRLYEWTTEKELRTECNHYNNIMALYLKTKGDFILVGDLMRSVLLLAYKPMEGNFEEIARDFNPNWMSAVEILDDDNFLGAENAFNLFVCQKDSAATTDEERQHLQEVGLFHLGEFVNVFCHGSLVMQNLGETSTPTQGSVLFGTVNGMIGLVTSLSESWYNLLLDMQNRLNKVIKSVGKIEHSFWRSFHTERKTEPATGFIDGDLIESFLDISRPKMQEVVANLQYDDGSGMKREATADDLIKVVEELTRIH
The assay is described as follows: GSPT1 protein levels by Western Blot analysis. The assay is classed as cell-based. Conditions: DMSO = 100.00; for remaining activity at 0.1 µM: 100 nM compound concentration; for remaining activity at 1 µM: 1 μM compound concentration. As to the method:
Cells were lysed using RIPA Buffer (Pierce) and a Western Blot analysis was performed using anti-GSPT1 and anti-β-actin antibodies. FIG. 11B is a graph showing the expression levels of GSPT1 protein in Molm-13 (AML) cells. Protein expression levels were measured using the LiCor Odyssey instrumentation and methods.
Western Blot Protocol: Cell lines were grown in RPMI 1640 supplemented with streptomycin, penicillin and 10% fetal bovine serum.
Cells were cultured at approximately 10^6 cells per mL and incubated in DMSO or each of the indicated compounds for 6-8 h. Whole cell extracts were prepared using RIPA buffer according to manufacturer's protocol (Pierce). Briefly, 2×10^6 cells were washed once in PBS, the cell pellets were resuspended in RIPA buffer and allowed to incubate for 15 minutes on ice. Cells debris was removed by centrifugation and the cleared whole cell lysates were transferred to new tubes for further analysis.
For Western blot analysis, whole cell protein extracts were separated on 4-12% SDS-polyacrylamide gels, transferred to nitrocellulose, and probed with the indicated primary antibodies. Membranes were subsequently washed and probed with the appropriate IRDye secondary antibodies (LI-COR). The signal was detected using the Odyssey Imaging System (LI-COR).
GSPT1: Rabbit anti-GSPT1 was obtained from Abcam, ab126090 (Cambridge, Eng.)
In general terms: Immunoblotting shows a protein as a band on a membrane.

Assay [7] concerns TNF-α. The assay is described as follows: TNF-α expression in LPS stimulated PBMCs (Meso Scale). Conditions: Homo sapiens, PBMC; for inhibition at 0.1 µM: compound concentration 0.1 μM. The assay is classed as cell-based, human. The method, then:
FIGS. 7 and 9C are graphs showing TNF-a expression in LPS stimulated peripheral blood mononuclear cells (PBMCs). PBMCs were plated in 96-well plates and pretreated with compound (Compound 1-9 individually) for 1 h, and then induced with 100 ng/mL LPS for 18-24 h. Cytokines in the media were measured according to MesoScale protocol. The negative control wells were treated with DMSO. Compound activity is measured as a percentage of LPS-induced activity. “Rev” is lenalidomide.
as §1, §2, §3

On to `Cc1ccc(NC(=O)NCc2csc3c2CN([C@H]2CCCC(=O)NC2=O)C3=O)cc1Cl` [Compound 45, (S)-1-(3-Chloro-4-methylphenyl)-3-((5-(2,7-dioxoazepan-3-yl)-6-oxo-5,6-dihydro-4H-thieno[2,3-c]pyrrol-3-yl)methyl)urea], for which the inhibition at 1 µM came to 19% in assay [1] (compound concentration 1 μM), 18% in assay [5] (compound concentration 1 μM) and 22% in assay [7] (compound concentration 1 μM). Moreover, the cytotoxicity at 1 µM in assay [2] (compound concentration 1 μM) worked out at 59%. Moreover, the viability at 1 µM in assay [3] is 101%; in assay [4], 12.7%. Besides, the viability at 10 µM is 46.7% in assay [3] and 9.89% in assay [4]. In addition, the remaining activity at 0.1 µM in assay [6] came to 90.3%. For the same molecule, the remaining activity at 1 µM in assay [6] came to 22.3%.
With `Cc1ccc(NC(=O)NCc2scc3c2CN(C2CCC(=O)NC2=O)C3=O)nc1Cl` (centres unmarked) [Compound 46, 1-(6-Chloro-5-methylpyridin-2-yl)-3-((5-(2,6-dioxopiperidin-3-yl)-4-oxo-5,6-dihydro-4H-thieno[3,4-c]pyrrol-1-yl)methyl)urea], the results for the inhibition at 0.1 µM in assay [1], in assay [5] and in assay [7] were 54%, 85% and 58%, respectively. The cytotoxicity at 0.1 µM in assay [2] turned out to be 100%. Besides, the viability at 1 µM in assay [3] stood at 29%; in assay [4], 9.35%. Further, the viability at 10 µM in assay [3] came to 24.1%; in assay [4], 11.5%. Moreover, in assay [6], the remaining activity at 0.1 µM came to 65.2%. This molecule displayed a remaining activity at 1 µM in assay [6] of 4.73%.
`Cc1ccc(NC(=O)NCc2scc3c2CN(C2CCC(=O)NC2=O)C3=O)cc1C(C)C` (centres unmarked) [Compound 47, 1-((5-(2,6-Dioxopiperidin-3-yl)-4-oxo-5,6-dihydro-4H-thieno[3,4-c]pyrrol-1-yl)methyl)-3-(3-isopropyl-4-methylphenyl)urea]: the inhibition at 0.1 µM in assay [1] turned out to be 99%; in assay [5], 100%; in assay [7], 97%. Besides, the cytotoxicity at 0.1 µM in assay [2] was 100%. In addition, the viability at 1 µM in assay [3] was 21.8%; in assay [4], 8.91%. In addition, the viability at 10 µM in assay [3] was determined as 19.3%; in assay [4] it was 8.58%. The same molecule had a remaining activity at 0.1 µM in assay [6] of 0.64%. The molecule also yielded a remaining activity at 1 µM in assay [6] of 2.61%.
As for `Cc1c(Cl)cc(NC(=O)NCc2scc3c2CN(C2CCC(=O)NC2=O)C3=O)cc1C(C)C` (centres unmarked) [Compound 48, 1-(3-Chloro-5-isopropyl-4-methylphenyl)-3-((5-(2,6-dioxopiperidin-3-yl)-4-oxo-5,6-dihydro-4H-thieno[3,4-c]pyrrol-1-yl)methyl)urea], the values for the inhibition at 0.1 µM in assay [1], in assay [5] and in assay [7] were 96%, 100% and 92%, respectively. Further, the cytotoxicity at 0.1 µM in assay [2] came to 100%. The viability at 1 µM was determined as 22.2% in assay [3] and 9.03% in assay [4]. In addition, the viability at 10 µM in assay [3] amounted to 21.7%; in assay [4], 6.89%. Besides, the remaining activity at 0.1 µM in assay [6] is 1.46%. Besides, the remaining activity at 1 µM in assay [6] turned out to be 3.85%.
Turning to `Cc1cc(C)c(NC(=O)NCc2scc3c2CN(C2CCC(=O)NC2=O)C3=O)cc1Cl` (centres unmarked) [Compound 49, 1-(5-Chloro-2,4-dimethylphenyl)-3-((5-(2,6-dioxopiperidin-3-yl)-4-oxo-5,6-dihydro-4H-thieno[3,4-c]pyrrol-1-yl)methyl)urea], the inhibition at 0.1 µM in assay [1] was 61%; in assay [5], 87%; in assay [7], 62%. For the same molecule, in assay [2], the cytotoxicity at 0.1 µM came out at 100%. Moreover, the viability at 1 µM in assay [3] was found to be 24.3%; in assay [4], 7.67%. In addition, the viability at 10 µM in assay [3] turned out to be 19.7%; in assay [4], 6.1%. The molecule further registered a remaining activity at 0.1 µM in assay [6] of 11.9%. In assay [6], the remaining activity at 1 µM is 20%.
On to `Cc1ccc(NC(=S)NCc2scc3c2CN(C2CCC(=O)NC2=O)C3=O)cc1Cl` (centres unmarked) [Compound 52, 1-(3-Chloro-4-methylphenyl)-3-((5-(2,6-dioxopiperidin-3-yl)-4-oxo-5,6-dihydro-4H-thieno[3,4-c]pyrrol-1-yl)methyl)thiourea], for which the results for the inhibition at 0.1 µM in assay [1], in assay [5] and in assay [7] were 98%, 100% and 95%, respectively. Moreover, the cytotoxicity at 0.1 µM in assay [2] stood at 99%. Moreover, the viability at 1 µM came out at 22.4% in assay [3] and 9.22% in assay [4]. Also, the figures for the viability at 10 µM in assay [3] and in assay [4] were 20.5% and 10.3%, respectively. The same molecule showed a remaining activity at 0.1 µM in assay [6] of 0.58%. In assay [6], this molecule returned a remaining activity at 1 µM of 1.05%.
In the case of `Cc1ccc(NC(=O)NCc2scc3c2CN(C2CCC(=O)NC2=O)C3=O)cn1` (centres unmarked) [Compound 53, 1-((5-(2,6-Dioxopiperidin-3-yl)-4-oxo-5,6-dihydro-4H-thieno[3,4-c]pyrrol-1-yl)methyl)-3-(6-methylpyridin-3-yl)urea], the inhibition at 0.1 µM in assay [1] was 60%; in assay [5] it was 90%; in assay [7] it was 65%. Also, the cytotoxicity at 0.1 µM in assay [2] came to 100%. In addition, the viability at 1 µM in assay [3] was 27.6%; in assay [4], 8.51%. Besides, the viability at 10 µM in assay [3] worked out at 21.3%; in assay [4], 8.09%. This molecule also returned a remaining activity at 0.1 µM in assay [6] of 23.5%. This molecule also showed a remaining activity at 1 µM in assay [6] of 6.18%.
With `Cc1ccc(NC(=O)NCc2scc3c2CN(C2CCC(=O)NC2=O)C3=O)cc1C(F)(F)F` (centres unmarked) [Compound 54, 1-((5-(2,6-Dioxopiperidin-3-yl)-4-oxo-5,6-dihydro-4H-thieno[3,4-c]pyrrol-1-yl)methyl)-3-(4-methyl-3-(trifluoromethyl)phenyl)urea], the inhibition at 0.1 µM in assay [1] was 96%; in assay [5] it was 100%; in assay [7], 93%. The cytotoxicity at 0.1 µM in assay [2] turned out to be 100%. The results for the viability at 1 µM in assay [3] and in assay [4] were 22.6% and 8.11%, respectively. The viability at 10 µM in assay [3] amounted to 22.4%; in assay [4], 6.12%. This molecule also gave a remaining activity at 0.1 µM in assay [6] of 2.25%. Also, the remaining activity at 1 µM in assay [6] turned out to be 2.72%.

A word on the inhibition: it is the change of the read-out against control, counted positive when it falls. In general, viability refers to a read-out of living cells in per cent, often relative to untreated cells. As a reminder, the remaining activity is the share of the control activity or signal that is left under treatment. Read a high remaining activity as much activity left.
